Where two headings read alike, the source gives them in different places. Square brackets hold non-standard residues; d marks the D form. Peptide text beside a SMILES is read from it. Cit = NC(=O)NCCC[C@H](N)C(=O)O
Key:
HLA-DRB1*01:01 = biological target: T1, HLA-DRB1*01:01 (Homo sapiens, UniProt P01903+P01911, A100R/D57E/F55L/F60I/F76Y/I96L/L162R/M171V/P40L/Q125E/R42F/V115G/Y59C); experiment: HLA class II peptide binding, inhibition of radiolabeled peptide binding to purified MHC
T1 construct: EBV transformed homozygous cell lines were used as sources of MHC molecules; endogenous in cells; host or cells: EBV transformed homozygous cell lines

HLA-DRB1*04:01 = biological target: T2, HLA-DRB1*04:01 (Homo sapiens, UniProt P01903+P01911, A100K/A169T/F76Y/I96L/K127E/L162R/M171V/N62H/P40V/Q125Y/R42H/S133A/S149N/S66Y/V115G/V209L/W38E); experiment: as above; conditions: for DRB1*04:01 binding capacity, WT/cit ratio: ratio of WT IC50 to Cit IC50, >1 = citrullination increases binding
T2 construct: EBV transformed homozygous cell lines were used as sources of MHC molecules; endogenous in cells; host or cells: EBV transformed homozygous cell lines

[1] = citrullinated 15-mer peptide (X = citrulline), purified HLA-DRB1*01:01, read-out: DRB1*01:01 binding capacity, Cit peptide (IC50 nM)
[2] = citrullinated 15-mer peptide (X = citrulline), purified HLA-DRB1*04:01, read-out: DRB1*04:01 binding capacity, Cit peptide (IC50 nM)
[3] = citrullinated 15-mer (X), purified MHC, inhibition of radiolabeled peptide binding, dash = IC50 >40,000 nM, read-out: DRB1*01:01 binding capacity, Cit peptide (IC50 nM)
[4] = citrullinated 15-mer (X), purified MHC, inhibition of radiolabeled peptide binding, dash = IC50 >40,000 nM, read-out: DRB1*04:01 binding capacity, Cit peptide (IC50 nM)

| Structure (SMILES) | IC50 (HLA-DRB1*01:01; [1]) | IC50 (HLA-DRB1*04:01; [2]) | IC50 (HLA-DRB1*01:01; [3]) | IC50 (HLA-DRB1*04:01; [4]) | also measured |
| --- | --- | --- | --- | --- | --- |
| CC[C@H](C)[C@H](NC(=O)CNC(=O)[C@H](CCCNC(=N)N)NC(=O)[C@H](CCC(N)=O)NC(=O)CNC(=O)[C@H](C)NC(=O)[C@H](CC(C)C)NC(=O)CNC(=O)[C@H](CCC(N)=O)NC(=O)[C@@H]1CCCN1C(=O)CNC(=O)[C@@H]1CCCN1)C(=O)N[C@H](C(=O)NCC(=O)N[C@@H](CC(C)C)C(=O)O)C(C)C [Collagen 971 WT] | – | – | – | – | IC50 (HLA-DRB1*01:01; wild-type (unmodified Arg) 15-mer peptide, purified HLA-DRB1*01:01, read-out: DRB1*01:01 binding capacity, WT peptide (IC50 nM)): 7.9 nM; IC50 (HLA-DRB1*04:01; wild-type (unmodified Arg) 15-mer peptide, purified HLA-DRB1*04:01, read-out: DRB1*04:01 binding capacity, WT peptide (IC50 nM)): 7160 nM |
| CSCC[C@H](NC(=O)[C@H](CCC(N)=O)NC(=O)[C@H](CCCNC(=N)N)NC(=O)[C@H](CCC(=O)O)NC(=O)[C@H](CC(C)C)NC(=O)[C@H](CO)NC(=O)[C@H](CCC(=O)O)NC(=O)[C@H](CC(N)=O)NC(=O)[C@@H](NC(=O)CNC(=O)[C@H](CCCCN)NC(=O)[C@H](CC(C)C)NC(=O)[C@H](C)NC(=O)[C@@H](N)CC(=O)O)[C@@H](C)O)C(=O)N[C@@H](CCCNC(N)=O)C(=O)O [DALKGTNESLERQMX] (H-DALKGTNESLERQM[Cit]-OH) | 24200 nM | 17500 nM | – | – | – |
| CSCC[C@H](NC(=O)[C@H](CCC(N)=O)NC(=O)[C@H](CCCNC(N)=O)NC(=O)[C@H](CCC(=O)O)NC(=O)[C@H](CC(C)C)NC(=O)[C@H](CO)NC(=O)[C@H](CCC(=O)O)NC(=O)[C@H](CC(N)=O)NC(=O)[C@@H](NC(=O)CNC(=O)[C@H](CCCCN)NC(=O)[C@H](CC(C)C)NC(=O)[C@H](C)NC(=O)[C@@H](N)CC(=O)O)[C@@H](C)O)C(=O)N[C@@H](CCCNC(=N)N)C(=O)O [DALKGTNESLEXQMR] (H-DALKGTNESLE[Cit]QMR-OH) | > 40000 nM | 16600 nM | – | – | – |
| CC[C@H](C)[C@H](NC(=O)[C@H](CO)NC(=O)[C@H](CCC(=O)O)NC(=O)[C@@H](NC(=O)[C@H](CCC(N)=O)NC(=O)[C@H](CC(N)=O)NC(=O)[C@H](CC(N)=O)NC(=O)[C@H](CC(C)C)NC(=O)[C@H](CO)NC(=O)[C@H](CCCCN)NC(=O)[C@H](CC(C)C)NC(=O)[C@@H](NC(=O)[C@H](C)NC(=O)[C@@H](N)CC(=O)O)[C@@H](C)O)[C@@H](C)CC)C(=O)N[C@@H](CCCNC(N)=O)C(=O)O [DATLKSLNNQIESIX] (H-DATLKSLNNQIESI[Cit]-OH) | – | – | – | – | IC50 (HLA-DRB1*01:01; citrullinated peptide as listed (X at Cit position), read-out: DRB1*01:01 binding capacity Cit peptide (IC50 nM)): 9.4 nM; IC50 (HLA-DRB1*04:01; citrullinated peptide as listed (X at Cit position), read-out: DRB1*04:01 binding capacity Cit peptide (IC50 nM)): 1390 nM |
| CC(C)C[C@H](NC(=O)CNC(=O)[C@@H](N)CC(=O)O)C(=O)N[C@@H](C)C(=O)NCC(=O)N1CCC[C@H]1C(=O)N[C@@H](CCCCN)C(=O)NCC(=O)N[C@@H](C)C(=O)N1CCC[C@H]1C(=O)NCC(=O)N[C@@H](CCC(=O)O)C(=O)N[C@@H](CCCNC(N)=O)C(=O)NCC(=O)N1CCC[C@H]1C(=O)O [DGLAGPKGAPGEXGP] (H-DGLAGPKGAPGE[Cit]GP-OH) | 1120 nM | > 40000 nM | – | – | – |
| C[C@H](NC(=O)CNC(=O)[C@H](CCCCN)NC(=O)[C@@H]1CCCN1C(=O)CNC(=O)[C@@H](N)CC(=O)O)C(=O)N[C@@H](CCCNC(=N)N)C(=O)NCC(=O)N[C@@H](CC(=O)O)C(=O)N[C@@H](CO)C(=O)NCC(=O)N1CCC[C@H]1C(=O)N1CCC[C@H]1C(=O)NCC(=O)N[C@@H](CCCNC(N)=O)C(=O)O [DGPKGARGDSGPPGX] (H-DGPKGARGDSGPPG[Cit]-OH; N-terminus and C-terminus assumed) | > 40000 nM | > 40000 nM | – | – | DRB1*04:01 binding capacity, WT/cit ratio (HLA-DRB1*04:01): 0.548 |
| C[C@H](NC(=O)CNC(=O)[C@H](CCCCN)NC(=O)[C@@H]1CCCN1C(=O)CNC(=O)[C@@H](N)CC(=O)O)C(=O)N[C@@H](CCCNC(N)=O)C(=O)NCC(=O)N[C@@H](CC(=O)O)C(=O)N[C@@H](CO)C(=O)NCC(=O)N1CCC[C@H]1C(=O)N1CCC[C@H]1C(=O)NCC(=O)N[C@@H](CCCNC(=N)N)C(=O)O [DGPKGAXGDSGPPGR] (H-DGPKGA[Cit]GDSGPPGR-OH; N-terminus and C-terminus assumed) | > 40000 nM | > 40000 nM | – | – | DRB1*01:01 binding capacity, WT/cit ratio (HLA-DRB1*01:01; ratio of WT IC50 to Cit IC50, >1 = citrullination increases binding): 0.533; DRB1*04:01 binding capacity, WT/cit ratio (HLA-DRB1*04:01): 0.548 |
| CC[C@H](C)[C@H](NC(=O)[C@@H](N)CC(=O)O)C(=O)N[C@@H](CCSC)C(=O)N[C@@H](CCCNC(=N)N)C(=O)N[C@@H](CC(C)C)C(=O)N[C@@H](CCCNC(N)=O)C(=O)N[C@@H](CCC(=O)O)C(=O)N[C@@H](CCCCN)C(=O)N[C@@H](CC(C)C)C(=O)N[C@@H](CCC(N)=O)C(=O)N[C@@H](CCC(=O)O)C(=O)N[C@@H](CCC(=O)O)C(=O)N[C@@H](CCSC)C(=O)N[C@@H](CC(C)C)C(=O)N[C@@H](CCC(N)=O)C(=O)O [DIMRLXEKLQEEMLQ] (H-DIMRL[Cit]EKLQEEMLQ-OH) | – | – | 729 nM | > 40000 nM | – |
| CC[C@H](C)[C@H](NC(=O)[C@@H](N)CC(=O)O)C(=O)N[C@@H](CCSC)C(=O)N[C@@H](CCCNC(N)=O)C(=O)N[C@@H](CC(C)C)C(=O)N[C@@H](CCCNC(=N)N)C(=O)N[C@@H](CCC(=O)O)C(=O)N[C@@H](CCCCN)C(=O)N[C@@H](CC(C)C)C(=O)N[C@@H](CCC(N)=O)C(=O)N[C@@H](CCC(=O)O)C(=O)N[C@@H](CCC(=O)O)C(=O)N[C@@H](CCSC)C(=O)N[C@@H](CC(C)C)C(=O)N[C@@H](CCC(N)=O)C(=O)O [DIMXLREKLQEEMLQ] (H-DIM[Cit]LREKLQEEMLQ-OH) | – | – | 983 nM | > 40000 nM | – |
| CC(C)C[C@H](NC(=O)[C@H](CO)NC(=O)[C@H](C)NC(=O)[C@H](CC(N)=O)NC(=O)[C@@H](N)CC(=O)O)C(=O)N[C@@H](C)C(=O)N[C@@H](CCCNC(=N)N)C(=O)N[C@@H](CC(C)C)C(=O)N[C@@H](CC(=O)O)C(=O)N[C@@H](CC(C)C)C(=O)N[C@@H](CCC(=O)O)C(=O)N[C@@H](CCCNC(N)=O)C(=O)N[C@@H](CCCCN)C(=O)N[C@H](C(=O)N[C@@H](CCC(=O)O)C(=O)O)C(C)C [DNASLARLDLEXKVE] (H-DNASLARLDLE[Cit]KVE-OH) | – | – | 10900 nM | > 40000 nM | – |
| CC(C)C[C@H](NC(=O)[C@H](CO)NC(=O)[C@H](C)NC(=O)[C@H](CC(N)=O)NC(=O)[C@@H](N)CC(=O)O)C(=O)N[C@@H](C)C(=O)N[C@@H](CCCNC(N)=O)C(=O)N[C@@H](CC(C)C)C(=O)N[C@@H](CC(=O)O)C(=O)N[C@@H](CC(C)C)C(=O)N[C@@H](CCC(=O)O)C(=O)N[C@@H](CCCNC(=N)N)C(=O)N[C@@H](CCCCN)C(=O)N[C@H](C(=O)N[C@@H](CCC(=O)O)C(=O)O)C(C)C [DNASLAXLDLERKVE] (H-DNASLA[Cit]LDLERKVE-OH) | – | – | 16300 nM | > 40000 nM | – |
| CC[C@H](C)[C@H](NC(=O)[C@H](CC(=O)O)NC(=O)[C@H](CCC(=O)O)NC(=O)[C@H](C)NC(=O)[C@H](CC(C)C)NC(=O)[C@H](CC(N)=O)NC(=O)[C@@H](N)CC(=O)O)C(=O)N[C@@H](CCSC)C(=O)N[C@@H](CCCNC(=N)N)C(=O)N[C@@H](CC(C)C)C(=O)N[C@@H](CCCNC(N)=O)C(=O)N[C@@H](CCC(=O)O)C(=O)N[C@@H](CCCCN)C(=O)N[C@@H](CC(C)C)C(=O)N[C@@H](CCC(N)=O)C(=O)O [DNLAEDIMRLXEKLQ] (H-DNLAEDIMRL[Cit]EKLQ-OH) | – | – | 1610 nM | > 40000 nM | – |
| CC[C@H](C)[C@H](NC(=O)[C@H](CC(=O)O)NC(=O)[C@H](CCC(=O)O)NC(=O)[C@H](C)NC(=O)[C@H](CC(C)C)NC(=O)[C@H](CC(N)=O)NC(=O)[C@@H](N)CC(=O)O)C(=O)N[C@@H](CCSC)C(=O)N[C@@H](CCCNC(N)=O)C(=O)N[C@@H](CC(C)C)C(=O)N[C@@H](CCCNC(=N)N)C(=O)N[C@@H](CCC(=O)O)C(=O)N[C@@H](CCCCN)C(=O)N[C@@H](CC(C)C)C(=O)N[C@@H](CCC(N)=O)C(=O)O [DNLAEDIMXLREKLQ] (H-DNLAEDIM[Cit]LREKLQ-OH) | – | – | 4690 nM | > 40000 nM | – |
